From a melting point compilation (Tetko et al.)

| SMILES | melting point [°C] |
| --- | --- |
| Cn1cc(C(=O)O)c(-c2cccs2)n1 | 179 to 181 |
| O=C(CC(=O)Nc1ccccc1)Nc1ccccc1 | 220 to 222 |
| OCCNc1cccnn1 | 77 to 79 |
| O=S(=O)(c1ccccc1)N1C2Cc3ccccc3C21 (stereo not given) | 120 to 122 |
| COC(=O)c1ccc(O)c(C(C)=O)c1 | 96 to 98 |
| O=C(O)C1CCN(C(=O)c2ccccn2)CC1 | 146 to 148 |
| Cc1cc(C)c(S(=O)(=O)N2CCCC2C(=O)O)c(C)c1 (stereo not given) | 84 to 86 |
| CC1NC(=O)c2ccccc2NC1=O (stereo not given) | 337 to 339 |
| O=C(O)c1ccnc(OC2CCCCC2)c1 | 123 to 125 |
| CNc1ccc(Oc2ccccn2)cc1 | 126 to 128 |
| CC(C)(C)OC(=O)N1CCNC(C#N)C1 (stereo not given) | 109 to 111 |
| CC(=O)c1ccc(C)c(S(N)(=O)=O)c1 | 144 to 146 |
| Cc1[nH]n(-c2ccc(C#N)cc2)c(=N)c1C | 180 to 182 |
| COc1ccc(/C=C(/C(=O)O)c2cccs2)cc1 | 205 to 207 |
| CCC(CC)NC(=O)C(=O)NN | 177 to 179 |
| Nc1ccc(-c2cn3cccnc3n2)cc1 | 251 to 253 |
| O=C(O)c1cnn(-c2ccc(F)cc2)n1 | 214 to 216 |
| NC1(c2nnn[nH]2)CCC1 | 254 to 256 |
| Cc1nn(-c2ccccc2Cl)c2sc(C(=O)O)cc12 | 56 to 58 |
| Nc1ccc(CCn2nnc(-c3ccccc3)n2)cc1 | 99 to 101 |
| Cc1ccsc1C1CC1C(=O)O (stereo not given) | 58 to 60 |
| COc1ccc(NC(=O)CCl)cc1S(=O)(=O)N1CCCCC1 | 142 to 144 |
| Nc1cc(C(F)(F)F)ccc1N1CC(C(F)(F)F)OC1=O (stereo not given) | 99 to 101 |
| Cc1cc(C(=O)CCl)c(C)n1-c1ccc(C(F)(F)F)cc1 | 115 to 117 |

| SMILES | melting point [°C] |
| --- | --- |
| COc1ccc(C2(C)NC(=O)NC2=O)cc1OC (stereo not given) | 177 to 179 |
| O=C(O)C(Cn1ccc(C(F)(F)F)n1)NC1CC1 (stereo not given) | 175 to 177 |
| CCOC(=O)c1cc([N+](=O)[O-])cnc1C | 45 to 52 |
| [N-]=[N+]=Nc1ccc(I)cc1 | 33 to 35 |
| Cc1cc(N)n(N)c(=O)c1 | 193 to 195 |
| O=C(O)c1ccc(Sc2ccccc2)c([N+](=O)[O-])c1 | 228 to 230 |
| O=Cc1cn(-c2ccccc2)nc1-c1cc2ccccc2o1 | 176 to 178 |
| N#Cc1nnc[nH]1 | 188 to 190 |
| Nc1nc2ccc(S(N)(=O)=O)cc2s1 | 259 to 261 |
| CC(C)(C)OC(=O)N1CCN(C(=O)C2CCCN2)CC1 (stereo not given) | 219 to 221 |
| CC1CCCC(C)N1S(=O)(=O)c1ccsc1C(=O)O (stereo not given) | 150 to 152 |
| O=C1NC(=O)N(C2CC2)C1=O | 115 to 117 |
| Cc1cc(C)c2c(C)nn(-c3ccc(N)cc3)c2n1 | 104 to 106 |
| O=C1c2ccc([N+](=O)[O-])cc2C(=O)N1c1ccncc1 | 259 to 261 |
| COC(=O)C(C)Sc1ccccc1C(=O)O (stereo not given) | 118 to 120 |
| COc1cc2ncc(C(=O)O)c(O)c2cc1OC | 293 to 295 |
| O=C(O)c1cccnc1-n1ccnc1 | 179 to 181 |
| O=C(O)c1cnn(C2CCCCC2)c1 | 197 to 199 |
| N#CCCn1cc(C(=O)CCl)c2ccccc21 | 138 to 140 |
| CCOc1ccc(S(=O)(=O)N(C)c2ccc(OCC(=O)O)cc2)cc1 | 82 to 84 |
| O=C(NC1CC1)c1cc(Br)c[nH]1 | 144 to 146 |
| CNC(=O)c1ccc(OC)c(N)c1 | 108 to 110 |
| COC(=O)c1c(-c2ccccc2Cl)csc1N | 92 to 96 |
| CCOC(=O)c1[nH]c(C)c(C(=O)CCl)c1C | 159 to 161 |

| SMILES | melting point [°C] |
| --- | --- |
| Nc1onc(-c2ccccc2)c1-c1ccccc1 | 144 to 146 |
| N=C(N)NCCC(=O)O | 220 to 224 |
| Nc1ccc(-c2cccc(C(F)(F)F)c2)cn1 | 101 to 103 |
| Cc1ccc([N+](=O)[O-])cc1C(C)Cl (stereo not given) | 44 to 46 |
| CCOC(=O)COc1ccc(C#N)cc1 | 54 to 56 |
| NC(=O)c1c[nH]c2ccccc12 | 201 to 203 |
| Nc1cc(-c2cccc(Cl)c2)nn1-c1ccccc1 | 118 to 120 |
| O=C(c1cccc([N+](=O)[O-])c1)C(F)(F)F | 53 to 55 |
| Cc1n[nH]c(C)c1SCC(=O)O | 153 to 155 |
| CNc1cc(C(=O)OC)ccc1[N+](=O)[O-] | 137 to 139 |
| Cc1ccc(O)c(-c2nc3ccccc3[nH]2)c1 | 259 to 261 |
| N#CCC(=O)NCc1ccccc1 | 125 to 127 |
| CCOC(=O)c1ccc(S(=O)(=O)Cl)cc1 | 49 to 51 |
| c1ccc(CNc2cccnc2)nc1 | 50 to 52 |
| O=C(O)c1cc(N2CCNC2=O)c(F)cc1F | 246 to 248 |
| Cc1cc(O)ccc1C(C)C | 111 to 114 |
| O=C(O)c1nnn(-c2ccc(F)cc2)c1C(F)(F)F | 146 to 148 |
| O=C1NC(=O)N(CCc2cccs2)C1=O | 118 to 120 |
| Oc1cnnc(S)n1 | 244 to 246 |
| CC(O)CS(C)(=O)=O (stereo not given) | 51 to 53 |
| Cc1ccc(S(=O)(=O)N(C)Cc2ccc(C(=O)NN)cc2)cc1 | 66 to 68 |
| O=C(O)CSCC(=O)Nc1ccc(F)cc1 | 125 to 127 |
| Nc1cc(F)ccc1OCC1CCCO1 (stereo not given) | 87 to 89 |
| O=S(=O)(Nc1nccs1)c1ccc(Cl)nc1 | 229 to 231 |

| SMILES | melting point [°C] |
| --- | --- |
| Cc1ccc(S(=O)(=O)Nc2ccc(O)cc2)s1 | 106 to 108 |
| CC(C)(C)OC(=O)NC1CCCCCC1=O (stereo not given) | 67 to 69 |
| N#Cc1cc(Cl)nc2ccc([N+](=O)[O-])cc12 | 173 to 175 |
| CC(=O)N(C)c1ccccc1C(=O)O | 196 to 198 |
| N#Cc1cccnc1Oc1ccccc1N | 171 to 173 |
| CN[C@@H]1CN(C(=O)OC(C)(C)C)C[C@H]1O | 89 to 91 |
| C=CC(=O)ON=C(N)c1ccc(Cl)cc1 | 120 to 122 |
| CCOc1cc(C=CC#N)ccc1OC | 57 to 59 |
| NC(c1ccccc1)c1ccncc1 (stereo not given) | 40 to 42 |
| NS(=O)(=O)c1cccc(NC(=O)Oc2ccccc2)c1 | 193 to 195 |
| CNS(=O)(=O)c1cccc(N)c1C | 125 to 127 |
| O=C(O)c1cc(F)cc(S(=O)(=O)Cl)c1 | 136 to 138 |
| Cc1ccc(S(=O)(=O)N(O)c2ccccc2)cc1 | 36 to 40 |
| CC(Cl)C(=O)Nc1cccc(C#N)c1 (stereo not given) | 108 to 110 |
| CCCCOc1ccc(C(C)=O)cc1OC | 47 to 49 |
| Cc1c(C(=O)O)cnn1-c1cccc(Br)c1 | 169 to 171 |
| CCCCn1c(N)c(NC)c(=O)[nH]c1=O | 201 to 203 |
| CC(C)NCCc1nc(-c2ccc(S(C)(=O)=O)cc2)c[nH]1 | 264 to 266 |
| CC(C)(C)OC(=O)N1CC[C@H](O)C1 | 60 to 62 |
| NS(=O)(=O)c1ccc(OCCBr)cc1 | 111 to 113 |
| O=C(Nc1nc(C(F)(F)F)cs1)OCC(F)(F)F | 78 to 80 |
| COC(=O)c1cccc(CS(=O)(=O)Cl)c1 | 102 to 104 |
| CC(Cl)C(=O)c1ccc(C(C)(C)C)cc1 (stereo not given) | 18 to 20 |
| Nc1cc(C(=O)O)nc2ccccc12 | 276 to 278 |

| SMILES | melting point [°C] |
| --- | --- |
| CN(C)C(=O)COc1cccc(N)c1 | 100 to 102 |
| c1cncc(CNc2nc3ccccc3[nH]2)c1 | 177 to 179 |
| Nc1ccc(N2CCOCC2)c(S(=O)(=O)Nc2cc(Cl)ccc2Cl)c1 | 66 to 68 |
| Nc1nc(-c2ccc3c(c2)CC(=O)N3)cs1 | 249 to 251 |
| CC(C)(C)C(=O)N1CCNCC1 | 52 to 54 |
| Cc1ccc2nc(-c3ccc(N4C(=O)C=CC4=O)cc3)sc2c1 | 259 to 261 |
| O=C(O)C1CC(O)CN1C(=O)COc1ccccc1 (stereo not given) | 157 to 159 |
| O=Cc1cc2c(cc1O)OCO2 | 114 to 116 |
| O=c1cc2c(n[nH]1)CCOC2 | 218 to 220 |
| O=C(NCCCl)C1CCCC1 | 72 to 74 |
| O=C(O)c1nn(-c2ccc(F)cc2)c2c1CCCCC2 | 167 to 169 |
| COc1ccc(NC(=O)C(C)Cl)cc1 (stereo not given) | 133 to 135 |
| O=c1cc(CO)nc2sccn12 | 193 to 195 |
| CC(C)c1ccc(SCC(=O)O)cc1 | 66 to 68 |
| CCC(C)c1ccc(-c2csc(N)n2)cc1 (stereo not given) | 77 to 79 |
| Sc1nnnn1C1CC1 | 127 to 129 |
| O=C(Nc1cc(Cl)ccc1Cl)OCC(F)(F)F | 110 to 112 |
| O=c1c2ccccc2oc2ccc([N+](=O)[O-])cc12 | 203 to 205 |
| O=C(O)c1cc(-n2ccnc2)ccn1 | 194 to 196 |
| N#Cc1cc(Br)cc(S(N)(=O)=O)c1 | 199 to 201 |
| CS(=O)(=O)c1cccc(Cl)c1C=O | 102 to 104 |
| O=C(O)CCNC(=O)c1ccc2ccccc2c1 | 179 to 181 |
| NC(=NO)C(c1ccccc1)c1ccccc1 | 124 to 126 |
| Sc1nnc(-c2c[nH]c3ccccc23)n1CC1CCCO1 (stereo not given) | 251 to 253 |

| SMILES | melting point [°C] |
| --- | --- |
| O=C(O)CSc1nnc(-c2ccccc2F)n1-c1ccccc1 | 210 to 212 |
| COc1ccc(C(=O)NCC(=O)O)cc1OC | 198 to 200 |
| O=C(O)c1sccc1S(=O)(=O)N1CCC(O)CC1 | 219 to 221 |
| O=C(O)CSCc1ccc(F)cc1 | 71 to 73 |
| N#Cc1sc2ccccc2c1N | 155 to 157 |
| Brc1ccc(NCc2ccccn2)cc1 | 76 to 78 |
| CCOC(=O)c1cc(F)ccc1S(=O)(=O)Cl | 69 to 71 |
| N#CCn1c(C(=O)O)cc2ccccc21 | 192 to 194 |
| OC[C@@H](O)CNCCC(F)(F)F | 34 to 36 |
| CNS(=O)(=O)c1ccc(I)cc1 | 94 to 96 |
| O=S1CCNc2ccccc21 (stereo not given) | 201 to 203 |
| O=C(O)C1(O)CCSCC1 | 118 to 120 |
| O=C(O)CN1CCCS1(=O)=O | 83 to 85 |
| O=C(O)c1c[nH]c2cccc(Br)c12 | 159 to 161 |
| Cc1ccc(-c2nnc(N)o2)cc1F | 264 to 266 |
| O=c1cc(C(F)(F)F)[nH]c(=O)[nH]1 | 210 to 212 |
| O=Cc1cc([N+](=O)[O-])ccc1OC(F)F | 46 to 48 |
| CC(=O)NCCC(N)=S | 99 to 101 |
| O=C(Nc1cccc(NC(=O)c2ccco2)c1)OCC(F)(F)F | 167 to 169 |
| CC(=O)c1cccc([N+](=O)[O-])c1C | 49 to 51 |
